ChEMBL document CHEMBL1140860, “Synthesis and evaluation of dihydroartemisinin and dihydroartemisitene acetal dimers showing anticancer and antiprotozoal activity” (Bioorg Med Chem, 2009)

Experiments:
HCC 2998 = experiment: Growth inhibition of human HCC2998 cells after 48 hrs by sulforhodamine B assay; format: functional; details: HCC 2998, 48 h
[1] = Selectivity index, ratio of TC50 for african green monkey (Cercopithecus aethiops) Vero cells to IC50 for chloroquine-resistant Plasmodium falciparum W2; format: toxicity, cell-based
SNB-19 = experiment: Growth inhibition of human SNB19 cells after 48 hrs by sulforhodamine B assay; format: functional; details: SNB-19, 48 h
MDA-N = experiment: Growth inhibition of human MDA-N cells after 48 hrs by sulforhodamine B assay; format: functional
KM12 = experiment: Growth inhibition of human KM12 cells after 48 hrs by sulforhodamine B assay; format: functional; details: KM12, 48 h
M14 = experiment: Growth inhibition of human M14 cells after 48 hrs by sulforhodamine B assay; format: functional; details: M14, 48 h
HOP-62 = experiment: Growth inhibition of human HOP62 cells after 48 hrs by sulforhodamine B assay; format: functional; details: HOP-62, 48 h
HT-29 = experiment: Growth inhibition of human HT-29 cells after 48 hrs by sulforhodamine B assay; format: functional; details: HT-29, 48 h
LOX IMVI = experiment: Growth inhibition of human LOXIMVI cells after 48 hrs by sulforhodamine B assay; format: functional
ACHN = experiment: Growth inhibition of human ACHN cells after 48 hrs by sulforhodamine B assay; format: functional
[2] = Selectivity index, ratio of TC50 for african green monkey (Cercopithecus aethiops) Vero cells to IC50 for chloroquine-sensitive Plasmodium falciparum D6; format: toxicity, cell-based
SF-268 = experiment: Growth inhibition of human SF268 cells after 48 hrs by sulforhodamine B assay; format: functional; details: SF-268, 48 h
OVCAR-8 = experiment: Growth inhibition of human OVCAR8 cells after 48 hrs by sulforhodamine B assay; format: functional; details: OVCAR-8, 48 h
IGROV-1 = experiment: Growth inhibition of human IGROV1 cells after 48 hrs by sulforhodamine B assay; format: functional; details: IGROV-1, 48 h
NCI/ADR-RES = experiment: Growth inhibition of human NCI/ADR-RES cells after 48 hrs by sulforhodamine B assay; format: functional
MDA-MB-435 = experiment: Growth inhibition of human MDA-MB-435 cells after 48 hrs by sulforhodamine B assay; format: functional; details: MDA-MB-435, 48 h
[3] = Growth inhibition of human […] cells after 48 hrs by sulforhodamine B assay; format: functional
U-251 = experiment: Growth inhibition of human U251 cells after 48 hrs by sulforhodamine B assay; format: functional; details: U-251, 48 h
SNB-75 = experiment: Growth inhibition of human SNB75 cells after 48 hrs by sulforhodamine B assay; format: functional; details: SNB-75, 48 h
BT-549 = experiment: Growth inhibition of human BT549 cells after 48 hrs by sulforhodamine B assay; format: functional; details: BT-549, 48 h
COLO 205 = experiment: Growth inhibition of human COLO205 cells after 48 hrs by sulforhodamine B assay; format: functional; details: COLO 205, 48 h
SN12C = experiment: Growth inhibition of human SN12C cells after 48 hrs by sulforhodamine B assay; format: functional
MCF7 = experiment: Growth inhibition of human MCF7 cells after 48 hrs by sulforhodamine B assay; format: functional; details: MCF7, 48 h
SK-MEL-2 = experiment: Growth inhibition of human SK-MEL-2 cells after 48 hrs by sulforhodamine B assay; format: functional; details: SK-MEL-2, 48 h
HOP-92 = experiment: Growth inhibition of human HOP92 cells after 48 hrs by sulforhodamine B assay; format: functional; details: HOP-92, 48 h
SK-MEL-28 = experiment: Growth inhibition of human SK-MEL-28 cells after 48 hrs by sulforhodamine B assay; format: functional; details: SK-MEL-28, 48 h
OVCAR-4 = experiment: Growth inhibition of human OVCAR4 cells after 48 hrs by sulforhodamine B assay; format: functional; details: OVCAR-4, 48 h
T47D = experiment: Growth inhibition of human T47D cells after 48 hrs by sulforhodamine B assay; format: functional
[4] = Cytotoxicity against african green monkey Vero cells after 48 hrs by neutral red assay; format: cell-based; details: chlorocebus sabaeus, read-out: TC50
HCT-15 = experiment: Growth inhibition of human HCT15 cells after 48 hrs by sulforhodamine B assay; format: functional; details: HCT-15, 48 h
A549 = experiment: Growth inhibition of human A549 cells after 48 hrs by sulforhodamine B assay; format: functional; details: A549, 48 h
UACC-62 = experiment: Growth inhibition of human UACC62 cells after 48 hrs by sulforhodamine B assay; format: functional; details: UACC-62, 48 h
DU-145 = experiment: Growth inhibition of human DU145 cells after 48 hrs by sulforhodamine B assay; format: functional; details: DU-145, 48 h
SF-295 = experiment: Growth inhibition of human SF295 cells after 48 hrs by sulforhodamine B assay; format: functional; details: SF-295, 48 h
NCI-H226 = experiment: Growth inhibition of human NCI-H226 cells after 48 hrs by sulforhodamine B assay; format: functional; details: NCI-H226, 48 h
NCI-H522 = experiment: Growth inhibition of human NCI-H522 cells after 48 hrs by sulforhodamine B assay; format: functional; details: NCI-H522, 48 h
RXF 393 = experiment: Growth inhibition of human RXF393 cells after 48 hrs by sulforhodamine B assay; format: functional; details: RXF 393, 48 h
CCRF-CEM = experiment: Growth inhibition of human CCRF-CEM cells after 48 hrs by sulforhodamine B assay; format: functional
SF-539 = experiment: Growth inhibition of human SF539 cells after 48 hrs by sulforhodamine B assay; format: functional; details: SF-539, 48 h
EKVX = experiment: Growth inhibition of human EKVX cells after 48 hrs by sulforhodamine B assay; format: functional
786-0 = experiment: Growth inhibition of human 786-0 cells after 48 hrs by sulforhodamine B assay; format: functional; details: 786-0, 48 h
MOLT-4 = experiment: Growth inhibition of human MOLT4 cells after 48 hrs by sulforhodamine B assay; format: functional; details: MOLT-4, 48 h
PC-3 = experiment: Growth inhibition of human PC3 cells after 48 hrs by sulforhodamine B assay; format: functional; details: PC-3, 48 h
A498 = experiment: Growth inhibition of human A498 cells after 48 hrs by sulforhodamine B assay; format: functional; details: A498, 48 h
Plasmodium falciparum [5] = experiment: Antimalarial activity after 72 hrs against chloroquine-sensitive Plasmodium falciparum D6 infected in erythrocytes by LDH assay; format: functional, organism-based; details: D6, 72 h
NCI-H460 = experiment: Growth inhibition of human NCI-H460 cells after 48 hrs by sulforhodamine B assay; format: functional; details: NCI-H460, 48 h
OVCAR-5 = experiment: Growth inhibition of human OVCAR5 cells after 48 hrs by sulforhodamine B assay; format: functional; details: OVCAR-5, 48 h
K562 = experiment: Growth inhibition of human K562 cells after 48 hrs by sulforhodamine B assay; format: functional; details: K562, 48 h
Malme-3M = experiment: Growth inhibition of human MALME-3M cells after 48 hrs by sulforhodamine B assay; format: functional
NCI-H23 = experiment: Growth inhibition of human NCI-H23 cells after 48 hrs by sulforhodamine B assay; format: functional; details: NCI-H23, 48 h
Plasmodium falciparum [6] = experiment: Antimalarial activity after 72 hrs against chloroquine-resistant Plasmodium falciparum W2 infected erythrocytes by LDH assay; format: functional, organism-based; details: W2, 72 h
SK-MEL-5 = experiment: Growth inhibition of human SK-MEL-5 cells after 48 hrs by sulforhodamine B assay; format: functional; details: SK-MEL-5, 48 h
NCI-H322M = experiment: Growth inhibition of human NCI-H322M cells after 48 hrs by sulforhodamine B assay; format: functional
HCT-116 = experiment: Growth inhibition of human HCT116 cells after 48 hrs by sulforhodamine B assay; format: functional; details: HCT-116, 48 h
CAKI-1 = experiment: Growth inhibition of human Caki1 cells after 48 hrs by sulforhodamine B assay; format: functional; details: CAKI-1, 48 h
OVCAR-3 = experiment: Growth inhibition of human OVCAR-3 cells after 48 hrs by sulforhodamine B assay; format: functional; details: OVCAR-3, 48 h
TK-10 = experiment: Growth inhibition of human TK10 cells after 48 hrs by sulforhodamine B assay; format: functional; details: TK-10, 48 h
MDA-MB-231 = experiment: Growth inhibition of human MDA-MB-231 cells after 48 hrs by sulforhodamine B assay; format: functional; details: MDA-MB-231, 48 h
SW-620 = experiment: Growth inhibition of human SW620 cells after 48 hrs by sulforhodamine B assay; format: functional; details: SW-620, 48 h
SR = experiment: Growth inhibition of human SR cells after 48 hrs by sulforhodamine B assay; format: functional
SK-OV-3 = experiment: Growth inhibition of human SKOV3 cells after 48 hrs by sulforhodamine B assay; format: functional; details: SK-OV-3, 48 h
[7] = Growth inhibition of human Hs 578T cells after 48 hrs by sulforhodamine B assay; format: functional
UACC-257 = experiment: Growth inhibition of human UACC257 cells after 48 hrs by sulforhodamine B assay; format: functional; details: UACC-257, 48 h

C[C@H]1[C@@H](OCCCO[C@H]2O[C@@H]3O[C@@]4(C)CC[C@H]5[C@H](C)CC[C@@H]([C@H]2C)[C@@]35OO4)O[C@@H]2O[C@@]3(C)CC[C@H]4[C@H](C)CC[C@@H]1[C@@]24OO3
GI50 (HCC 2998): 9.65 µM | selectivity ratio [1]: 35 | GI50 (SNB-19): > 100 µM | GI50 (MDA-N): 1.58 µM | GI50 (KM12): 0.517 µM | GI50 (M14): > 100 µM | GI50 (HOP-62): > 100 µM | GI50 (HT-29): 0.522 µM | GI50 (LOX IMVI): > 100 µM | GI50 (ACHN): 1.47 µM | selectivity ratio [2]: > 21 | GI50 (SF-268): > 100 µM | GI50 (OVCAR-8): > 100 µM | GI50 (IGROV-1): 7.68 µM | GI50 (NCI/ADR-RES): 3.64 µM | GI50 (MDA-MB-435): 0.694 µM | GI50 [3]: 4.45 µM | GI50 (U-251): > 100 µM | GI50 (SNB-75): > 100 µM | GI50 (BT-549): 2.79 µM | GI50 (COLO 205): 0.45 µM | GI50 (SN12C): 4.03 µM | GI50 (MCF7): 0.652 µM | GI50 (SK-MEL-2): > 100 µM | GI50 (HOP-92): > 100 µM | GI50 (SK-MEL-28): > 100 µM | GI50 (OVCAR-4): > 100 µM | GI50 (T47D): 0.497 µM | CC50 at 48 h [4]: 296 µM | GI50 (HCT-15): 0.403 µM | GI50 (A549): 28.7 µM | GI50 (UACC-62): 17.9 µM | GI50 (DU-145): 100 µM | GI50 (SF-295): > 100 µM | GI50 (NCI-H226): > 100 µM | GI50 (NCI-H522): 7.13 µM | GI50 (RXF 393): 8 µM | GI50 (CCRF-CEM): 1.31 µM | GI50 (SF-539): > 100 µM | GI50 (EKVX): 5.49 µM | GI50 (786-0): 1.41 µM | GI50 (MOLT-4): 5.95 µM | GI50 (PC-3): 3.08 µM | GI50 (A498): 14.7 µM | IC50 (Plasmodium falciparum [5]): 14 µM | GI50 (NCI-H460): 31.2 µM | GI50 (OVCAR-5): > 100 µM | GI50 (K562): > 100 µM | GI50 (Malme-3M): > 100 µM | GI50 (NCI-H23): > 100 µM | IC50 (Plasmodium falciparum [6]): 8.5 µM | GI50 (SK-MEL-5): 30.5 µM | GI50 (NCI-H322M): > 100 µM | GI50 (HCT-116): 0.545 µM | GI50 (CAKI-1): 6.95 µM | GI50 (OVCAR-3): > 100 µM | GI50 (TK-10): 2.41 µM | GI50 (MDA-MB-231): 7.34 µM | GI50 (SW-620): 0.522 µM | GI50 (SR): 1.98 µM | GI50 (SK-OV-3): > 100 µM | GI50 [7]: 0.62 µM | GI50 (UACC-257): > 100 µM
